Patent US11970494B2, “6-heteroaryloxy benzimidazoles and azabenzimidazoles as JAK2 inhibitors” (Ajax Therapeutics, Inc., priority 2021, dated 2024)

Experiments:
[1] = Hepatocyte Stability Assay, rat hepatocytes; format: in vitro ADME; details: cryopreserved hepatocytes, read-out: Rat Heps CLint
Description: 10 mM stock solutions of test compound and positive control are prepared in DMSO. Stock solutions are diluted to 100 μM by combining 198 μL of 50% acetonitrile/50% water and 2 μL of 10 mM stock solution. Verapamil is used as positive control in the assay. Vials of cryopreserved hepatocytes are thawed in a 37° C. water bath with gently shaking. The contents are poured into the 50 mL thawing medium conical tube. Vials are centrifuged at 100 g for 10 minutes at room temperature. Thawing medium is aspirated and hepatocytes are re-suspended with serum-free incubation medium to yield ˜1.5×10^6 cells/mL. Cell viability and density are counted using a Trypan Blue exclusion, and then cells are diluted with serum-free incubation medium to a working cell density of 0.5×10^6 viable cells/mL. A portion of the hepatocytes at 0.5×10^6 viable cells/mL are boiled for 5 min prior to adding to the plate as negative control to eliminate the enzymatic activity so that little or no substrate turnover should be observed. Aliquots of 198 μL hepatocytes are dispensed into each well of a 96-well non-coated plate. The plate is placed in the incubator for approximately 10 minutes. Aliquots of 2 μL of the 100 μM test compound and 2 μL positive control are added into respective wells of a non-coated 96-well plate to start the reaction. The final concentration of test compound is 1 μM. This assay is performed in duplicate. The plate is incubated in the incubator for the designed time points. 25 μL of contents are transferred and mixed with 6 volumes (150 μL) of cold acetonitrile with internal standard (100 nM alprazolam, 200 nM labetalol, 200 nM caffeine and 200 nM diclofenac) to terminate the reaction at time points of 0, 15, 30, 60, 90 and 120 minutes. Samples are centrifuged for 25 minutes at 3,220 g and aliquots of 150 μL of the supernatants are used for LC-MS/MS analysis.

JAK1 = target: T1, JAK1 (Homo sapiens, UniProt P23458); assay: JAK Family Selectivity Assay: JAK1 vs JAK2 binding affinity; details: Kd JAK1 over Kd JAK2
T1 construct: made in house; host or cells: T7 phage in BL21-derived E. coli or HEK-293 cells
Description: Provided compounds are evaluated for selectivity by comparing their JAK2 binding affinity (Kd) in the above JAK2 Binding Assay with their binding affinity (Kd) for one or more other kinases. Binding affinity for other kinases is determined as follows: Kinase-tagged T7 phage strains are prepared in an E. coli host derived from the BL21 strain. E. coli are grown to log-phase and infected with T7 phage and incubated with shaking at 32° C. until lysis. The lysates are centrifuged and filtered to remove cell debris. The remaining kinases are produced in HEK-293 cells and subsequently tagged with DNA for qPCR detection. Streptavidin-coated magnetic beads are treated with biotinylated small molecule ligands for 30 minutes at room temperature to generate affinity resins for kinase assays. The liganded beads are blocked with excess biotin and washed with blocking buffer (SeaBlock (Pierce), 1% BSA, 0.05% Tween 20, 1 mM DTT) to remove unbound ligand and to reduce non-specific binding. Binding reactions are assembled by combining kinases, liganded affinity beads, and test compounds in 1× binding buffer (20% SeaBlock, 0.17×PBS, 0.05% Tween 20, 6 mM DTT). Test compounds are prepared as 111× stocks in 100% DMSO. Kds are determined using an 11-point 3-fold compound dilution series with three DMSO control points. All compounds for Kd measurements are distributed by acoustic transfer (non-contact dispensing) in 100% DMSO. The compounds are then diluted directly into the assays such that the final concentration of DMSO is 0.9%. All reactions are performed in polypropylene 384-well plate. Each has a final volume of 0.02 ml. The assay plates are incubated at room temperature with shaking for 1 hour and the affinity beads are washed with wash buffer (1×PBS, 0.05% Tween 20). The beads are then re-suspended in elution buffer (1× PBS, 0.05% Tween 20, 0.5 μM non-biotinylated affinity ligand) and incubated at room temperature with shaking for 30 minutes. The kinase concentration in the eluates is measured by qPCR. […] In some embodiments, provided compounds may be JAK2-selective over one or more of the following kinases: JAK1, JAK3, and Tyk2.

T1 sequence (P23458 whole entry): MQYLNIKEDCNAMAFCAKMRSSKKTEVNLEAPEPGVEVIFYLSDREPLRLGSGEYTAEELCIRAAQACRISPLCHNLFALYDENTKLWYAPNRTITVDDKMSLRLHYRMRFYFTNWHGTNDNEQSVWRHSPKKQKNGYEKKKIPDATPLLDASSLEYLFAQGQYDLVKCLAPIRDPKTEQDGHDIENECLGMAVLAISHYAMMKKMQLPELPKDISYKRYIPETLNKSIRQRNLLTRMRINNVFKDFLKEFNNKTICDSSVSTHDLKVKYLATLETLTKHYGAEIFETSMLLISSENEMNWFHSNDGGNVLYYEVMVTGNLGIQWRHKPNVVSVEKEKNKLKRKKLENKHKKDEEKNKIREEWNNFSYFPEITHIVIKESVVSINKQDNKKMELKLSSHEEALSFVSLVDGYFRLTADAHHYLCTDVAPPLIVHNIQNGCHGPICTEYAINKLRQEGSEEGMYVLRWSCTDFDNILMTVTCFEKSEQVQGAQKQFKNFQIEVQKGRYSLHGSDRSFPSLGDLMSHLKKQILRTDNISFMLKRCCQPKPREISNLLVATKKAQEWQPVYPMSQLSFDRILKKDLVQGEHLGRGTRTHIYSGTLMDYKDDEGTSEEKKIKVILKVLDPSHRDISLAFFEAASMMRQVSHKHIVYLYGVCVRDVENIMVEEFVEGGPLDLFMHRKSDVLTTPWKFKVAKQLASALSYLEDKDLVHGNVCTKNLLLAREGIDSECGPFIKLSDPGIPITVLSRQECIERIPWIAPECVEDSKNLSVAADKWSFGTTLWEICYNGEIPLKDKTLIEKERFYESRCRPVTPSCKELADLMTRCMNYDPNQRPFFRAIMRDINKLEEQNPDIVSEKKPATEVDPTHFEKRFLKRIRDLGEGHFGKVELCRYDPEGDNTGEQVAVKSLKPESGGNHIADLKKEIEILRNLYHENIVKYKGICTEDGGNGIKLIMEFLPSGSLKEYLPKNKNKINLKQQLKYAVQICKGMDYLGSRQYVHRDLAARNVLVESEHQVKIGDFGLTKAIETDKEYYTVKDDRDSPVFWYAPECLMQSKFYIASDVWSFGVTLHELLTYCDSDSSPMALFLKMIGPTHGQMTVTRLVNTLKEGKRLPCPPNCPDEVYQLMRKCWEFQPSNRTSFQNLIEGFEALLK

| CLint scaled at 1 μM [1] [mL/min/kg] | JAK1/JAK2 Kd/Kd ratio (JAK1) | Structure (SMILES) |
| --- | --- | --- |
| < 17 | B (Kd/Kd ratio <1000 and ≥300) | Cn1cc(C(F)(F)F)cc(Nc2nc3ncc(Oc4ccnc(NC(=O)OCCN5CCOCC5)c4)c(C#N)c3n2C)c1=O [Example I-15, 2-Morpholinoethyl(4-((7-cyano-1-methyl-2-((1-methyl-2-oxo-5-(trifluoromethyl)-1,2-dihydropyridin-3-yl)amino)-1H-imidazo[4,5-b]pyridin-6-yl)oxy)pyridin-2-yl)carbamate] |
| 17 to 35 | B (Kd/Kd ratio <1000 and ≥300) | CC(=O)Nc1cc(Oc2cnc3nc(Nc4cc(C(F)(F)F)cn(C)c4=O)n(C)c3c2Cl)c(F)cn1 [Example I-88, N-(4-((7-chloro-1-methyl-2-((1-methyl-2-oxo-5-(trifluoromethyl)-1,2-dihydropyridin-3-yl)amino)-1H-imidazo[4,5-b]pyridin-6-yl)oxy)-5-fluoropyridin-2-yl)acetamide] |
